Experimental data: patent US8748460B2, “Iminosugars and methods of treating togaviral diseases” (priority 2009, dated 2014)
pEC50: −log10 of the molar value.

Columns and labels:
[1] = tested on: Venezuelan Equine Encephalitis (Togaviridae) TC-83 strain; assay type: cell-based, Venezuelan equine encephalitis virus; details: read-out: EC50, VEE virus inhibition
[2] = tested on: Rift Valley Fever Virus (Bunyavirus) MP12 strain; assay type: cell-based; details: read-out: EC50, RVFV MP12 virus inhibition
[3] = tested on: Chikungunya (Togaviridae) 181/25 strain; assay type: cell-based; details: read-out: EC50, Chikungunya virus inhibition
[4] = tested on: Vero cells

Compound | pEC50 [1] | pEC50 [2] | pEC50 [3] | toxicity at the highest concentration [4] | toxicity to cells at the highest concentration [4]
CCCCN1C[C@H](O)[C@@H](O)[C@H](O)[C@H]1CO [UV-1, N-Butyl deoxynojirimycin] | 3.81 | – | – | – | –
CCCCCCCCCN1C[C@H](O)[C@@H](O)[C@H](O)[C@H]1CO [UV-2, N-Nonyl dexoynojirimycin] | 4.92 | 4.24 | 4.25 | toxic | toxic
CCCOCCCCCCN1C[C@H](O)[C@@H](O)[C@H](O)[C@H]1CO [UV-3, N-(7-Oxadecyl)deoxynojirimycin] | – | 3.66 | – | – | –
[N-]=[N+]=Nc1ccc(NCCCCCCN2C[C@H](O)[C@@H](O)[C@H](O)[C@H]2CO)c([N+](=O)[O-])c1 [UV-5, N—(N-{4′-azido-2′-nitrophenyl}-6-aminohexyl)deoxynojirimycin] | 5.70 | 4.31 | 4.66 | – | –
